In one assay the test system is HaCaT cells. Kind of assay: Hyaluronic acid (HA) production, ELISA. Format: cell-based, human. The method, then: The HaCaT human keratinocyte cell line was obtained from Cell Line Service GmbH (Germany). The cells were cultured in DMEM containing 1% penicillin-streptomycin and 10% fetal bovine serum (FBS) at 37 °C in a 5% CO2 incubator, and subculture was performed every 2 to 3 days.
HaCaT cells were seeded at 1.0×10^5 cells/well in a 24-well plate and incubated for 24 hours at 37 °C in a 5% CO2 incubator. After incubation, the culture medium was replaced with serum-free DMEM, and the peptide prepared in the above Example was applied at concentrations of 50-200 μM, followed by incubation for 24 hours. The supernatant from each experimental group was collected, and the amount of hyaluronic acid (HA) released into the medium was measured. The positive control group was treated with N-acetylglucosamine at a concentration of 10 mM. Measurement of hyaluronic acid production was conducted using a Hyaluronic Acid ELISA Kit (Cusabio Biotechnology Co., Ltd.) following the manufacturer's protocol.
A general note: In an ELISA, binding on a coated surface is turned into a signal by an enzyme label.

Another assay relates to B16F10 cells. The assay can be described thus: Melanin synthesis inhibition in α-MSH-treated melanocytes. The conditions noted are these: 72 hours. Format: cell-based, mouse. The procedure:
Mouse-derived melanocytes (B16F10 cells) were obtained from the American Type Culture Collection (ATCC) and used. The cells were cultured in Dulbecco's Modified Eagle's Medium (DMEM) supplemented with 1% penicillin-streptomycin and 10% fetal bovine serum (FBS) at 37 °C in a 5% CO2 incubator, and subcultured every 3 to 4 days.
B16F10 cells were seeded at 6.0×10^4 cells/well in a 6-well plate and cultured for 24 hours at 37 °C in a 5% CO2 incubator. The culture medium was then replaced with phenol red-free, serum-free DMEM, followed by treatment with α-MSH, a melanin production-inducing hormone, and the peptide from the above Preparation Example at concentrations ranging from 1 to 100 μM. The cells were incubated for 72 hours, after which they were collected and lysed with 1 N NaOH in an 80 °C heating block to dissolve intracellular melanin. The absorbance of the resulting solution was measured at 490 nm. The control group was treated with arbutin at a concentration of 500 μg/mL.

A further assay deals with NHDF cells. The assay can be described thus: Procollagen Type I Peptide (PIP) production, EIA. Format: cell-based, human. The procedure:
Normal Human Dermal Fibroblasts (NHDF) were obtained from Lonza (Lonza Walkersville, Inc.) and cultured in FBM (Fibroblast Basal Medium) supplemented with 0.1% hFGF-B, insulin, GA-1000, and 2% FBS at 37 °C in a 5% CO2 incubator. Subculture was performed every 2 to 3 days.
NHDF cells were seeded at 2.0×10^4 cells/well in a 24-well plate and incubated for 24 hours at 37 °C in a 5% CO2 incubator. After incubation, the culture medium was replaced with serum-free FBM, and the peptide prepared in the above Example was applied at concentrations of 1-100 μM, followed by incubation for 24 hours. The supernatant from each experimental group was collected, and the amount of procollagen released into the medium was measured. The positive control group was treated with ascorbic acid at a concentration of 0.001 v/v %. Measurement of procollagen levels was performed using a Procollagen Type I Peptide (PIP) EIA Kit (Takara Biomedical Co.) according to the manufacturer's protocol. The quantitative results of procollagen type I peptide production following treatment with the peptide of the Example are shown in Table 2 and FIG. 3.

Consider `CC(=O)N[C@H]1C(O)O[C@H](CO)[C@@H](O)[C@@H]1O` (stereo partly shown) [NAG, N-acetylglucosamine, reference compound], for which, in the assay on HaCaT cells (Homo sapiens, HaCaT, 24 h, 10 mM, positive control, untreated group = 100 ± 5.15), the activity at 10000 µM worked out at 125.5 ± 1.18%.
As to `OC[C@H]1O[C@@H](Oc2ccc(O)cc2)[C@H](O)[C@@H](O)[C@@H]1O` [Arbutin, arbutin, reference compound], the activity at 500 µg/mL with B16F10 cells (Mus musculus, B16-F10, 500 μg/mL, control, with α-MSH (200 nM), α-MSH alone = 100 ± 3.6, untreated = 75 ± 3.04, read-out: Melanin production) turned out to be 59.6 ± 0.8%.
Regarding `O=C1O[C@H]([C@@H](O)CO)C(O)=C1O` [Asc.A, ascorbic acid, reference compound], the activity at 10 µg/mL with NHDF cells (Homo sapiens, NHDF, 24 h, 10 μg/mL, positive control, untreated group = 100 ± 1.29) turned out to be 159 ± 3.8%.
As for “Ala-Ala-Gln-Pro-Arg (AAQPR; printed: Ala-Ala-Gln-Pro-Arg)”, the Hyaluronic acid production in the assay with HaCaT cells (50 μM, 24 hours, untreated group = 100 ± 5.15) was found to be 107.14 ± 1.08%; in the assay with HaCaT cells (100 μM, 24 hours, untreated group = 100 ± 5.15), 130.93 ± 0.59%; in the assay on HaCaT cells (200 μM, 24 hours, untreated group = 100 ± 5.15), 136.91 ± 6.87%. Besides, in the assay with HaCaT cells (50-200 μM, 24 hours), the “hyaluronic acid production (in words)” value was “increase in hyaluronic acid production”. For the same compound, the Procollagen production with NHDF cells (1 μM, 24 hours, untreated group = 100 ± 1.29) is given as 105.45 ± 3.15%; in the assay with NHDF cells (10 μM, 24 hours, untreated group = 100 ± 1.29), 129.75 ± 9.74%; in the assay on NHDF cells (50 μM, 24 hours, untreated group = 100 ± 1.29), 132.64 ± 13.74%; with NHDF cells (100 μM, 24 hours, untreated group = 100 ± 1.29) it was 134.92 ± 1.3%. Besides, the “procollagen production (in words)” value with NHDF cells (1-100 μM, 24 hours) is listed as “increase in procollagen production”. The Melanin production in the assay on B16F10 cells (1 μM, with α-MSH (200 nM), α-MSH alone = 100 ± 3.6, untreated = 75 ± 3.04) was found to be 100.86 ± 4.32%; in the assay on B16F10 cells (10 μM, with α-MSH (200 nM), α-MSH alone = 100 ± 3.6, untreated = 75 ± 3.04) it was 89.62 ± 2.95%; with B16F10 cells (100 μM, with α-MSH (200 nM), α-MSH alone = 100 ± 3.6, untreated = 75 ± 3.04), 79.76 ± 4.18%. Moreover, the “melanin production (in words)” value with B16F10 cells (1-100 μM, with α-MSH) is recorded as “inhibited melanin production”.

The values above are taken from patent US20260363987A1, “Novel Peptide Exhibiting Skin Condition Improvement Activity and Cosmetic Composition Containing Same” (DAEBONG LS CO., LTD., priority 2023, published 2026).
